Laboratory results as given in patent US5349127A, “Expression of herbicide metabolizing cytochromes P450” (priority 1992, dated 1994).

Tests used:
[1] = test system: S. griseolus ATCC 11796 uninduced; experiment: Sulfonylurea metabolism by washed cell suspension (Examples 5-9); type: in vitro ADME, Streptomyces griseolus
Protocol: Herbicides and their metabolites are measured by HPLC as described by Romesser et al., BBRC 140: 650-659 (1986), herein incorporated by reference, except that 0.1% H3 PO4 is used in both solvents. Chromatographic identity and quantitation of the herbicides and their resulting metabolites is determined by comparing them chromatographically with authentic standard compounds. Identity of the resulting metabolites is also confirmed by UV spectroscopy.
A 100 ml culture of S. griseolus ATCC 11796 in sporulation broth and a 50 ml culture of S. lividans transformed with pCAO400 in YEME broth were prepared and incubated for 24 hours as described. At that time, the S. griseolus culture was split into two 50 ml aliquots into two separate flasks and 25 ml of fresh sporulation broth was added to each and 9 mg of […] was added to one of these cultures to induce cytochrome P450SU1 expression. Fresh YEME broth (25 ml) was added to the S. lividans culture. After an additional 6 hours growth at 30° C., the cells in each culture were harvested as described above, washed twice with MOPS (50 mM, pH 7.2) and recentrifuged. The cell pellets were resuspended in four cell volumes of MOPS (50 mM, pH 7.2) containing 0.2% glucose and about 100 μg/ml of 10004. These cell suspensions were incubated at 30° C. with shaking and aliqouts were taken at 2 and 5.5 hours. The supernatant of each aliquot was analyzed by HPLC and the concentrations of the sulfonylurea compound 10004 and its metabolite 10005 were determined.
S. lividans transformed respectively with pCAO200SU1-FeS-B#9, pCAO200SU#112and pCAO200 were cultured for 36 hours in 400 ml of YEME broth at 30° C. S. griseolus ATCC 11796 was similarly cultured in 400 ml of sporulation broth. Six hours before harvesting the cells, 150 ml of fresh YEME broth was added to the S. lividans cells, and the S. griseolus cells were split into two 200 ml cultures with 100 ml of fresh sporulation broth added to each. 10001 (36 mg) was added to one of the two S. griseolus cultures to induce cytochrome P450SU1. The cells were prepared as described above in Example 5 and the concentrations of the sulfonylurea compound 10006 and its metabolites 10007, 10008 or 10009 were determined.

[2] = test system: S. lividans pCAO200SU1#12; experiment: Sulfonylurea metabolism by washed cell suspension (Examples 6-9); type: in vitro ADME, Streptomyces lividans
[3] = test system: S. ambofaciens PH3834; experiment: Metabolism of 10001 by strains transformed with pPAT108 (Example 14); type: in vitro ADME, Streptomyces ambofaciens; conditions: substrate 10001 120 ug/ml
Protocol: S. griseolus PH2003, S. griseus PH4001, S. ambofaciens PH4002, and S. lividans JI1326 were transformed with the plasmid pPAT108. The transformed S. griseolus strain, PH3826, was cultured for 24 hours in 150 mls of sporulation broth with 5 ug/ml thiostrepton. The transformed S. griseus strain, PH3832, and the transformed S. ambofaciens strain, PH3834, were cultured for 24 hours in 150 mls of trypticase soy broth with 5 ug/ml thiostrepton. The transformed S. lividans strain, PH3822, was similarly cultured in 150 mls of YEME broth with 5 ug/ml thiostrepton. Three hours before harvesting the cells, 50 mls of fresh medium of the same type with 5 ug/ml thiostrepton was added to each culture. The cells from each of the cultures were harvested by centrifugation, washed twice with 50 mMMOPS, pH7.2 and resuspended in five cell volumes of MOPS containing 0.2% glucose and 120 ug/ml of the sulfonylurea 10001. The cell suspensions were incubated at 30° C. with shaking and aliquots were removed at 0.5, 1, 2 and 4 hours. The supernatant of each aliquot was analyzed by HPLC and the concentration of the sulfonylurea compound 10001 and its metabolites 10002 and 10003 were determined.

SMILES | concentration in supernatant ([1]; substrate 10010, 2 h) [µM] | concentration in supernatant ([1]; substrate 10010, 4 h) [µM] | concentration in supernatant ([1]; substrate 10010, 6 h) [µM] | concentration in supernatant ([2]; substrate 10010, 2 h) [µM] | concentration in supernatant ([2]; substrate 10010, 4 h) [µM] | concentration in supernatant ([2]; substrate 10010, 6 h) [µM] | concentration in supernatant ([1]; substrate 10001, 2 h) [µM] | concentration in supernatant ([1]; substrate 10001, 4 h) [µM] | concentration in supernatant ([1]; substrate 10001, 6 h) [µM] | concentration in supernatant ([2]; substrate 10001, 2 h) [µM] | concentration in supernatant ([2]; substrate 10001, 4 h) [µM] | concentration in supernatant ([2]; substrate 10001, 6 h) [µM] | concentration in supernatant ([3]; 0.5 h) [µM] | concentration in supernatant ([3]; 1.0 h) [µM] | concentration in supernatant ([3]; 2.0 h) [µM] | concentration in supernatant ([3]; 4.0 h) [µM]
COC(=O)c1ccccc1S(=O)(=O)NC(=O)Nc1nc(C)cc(C)n1 [compound 10010, N-[(4,6-dimethylpyrimidin-2-yl)aminocarbonyl]-2-methoxycarbonylbenzenesulfonamide] | 70 | 49 | 37 | 90 | 85 | 80 | – | – | – | – | – | – | – | – | – | –
COc1cc(Cl)nc(NC(=O)NS(=O)(=O)c2ccccc2C(=O)O)n1 [compound 10003, N-[(4-chloro-6-methoxy-pyrimidin-2-yol)aminocarbonyl]-2-carboxybenzenesulfonamide] | – | – | – | – | – | – | 14 | 37 | 62 | 2 | 4 | 5 | 1 | 6 | 14 | 33
CCOC(=O)c1ccccc1S(=O)(=O)NC(=O)Nc1nc(O)cc(Cl)n1 [compound 10002, N-[(4-chloro-6-hydroxy-pyrimidin-2-yl)aminocarbonyl]-2-ethoxycarbonylbenzenesulfonamide] | – | – | – | – | – | – | – | – | – | 2 | 4 | 6 | 6 | 11 | 27 | 64
CCOC(=O)c1ccccc1S(=O)(=O)NC(=O)Nc1nc(Cl)cc(OC)n1 [compound 10001, N-[(4-chloro-6-methoxy-pyrimidin-2-yl)aminocarbonyl]-2-ethoxycarbonylbenzenesulfonamide] | – | – | – | – | – | – | 244 | 167 | 86 | – | 276 | 276 | – | 278 | 250 | 191
